The text below walks through data of paper PMC10252614 (International Journal of Molecular Sciences, 2023).

One data set addresses T1, GluN1/GluN2B receptor (Homo sapiens, UniProt Q05586+Q13224).
T1 construct: expressed in transfected cells; host or cells: HEK293
Description: whole-cell patch-clamp on HEK293 cells expressing GluN1/GluN2B NMDAR. The class given is cell-based. The conditions noted are these: HEK293, 10 µM, −60 mV, ± SEM (n = 5–6), 100% = full inhibition; read-out: Relative inhibition (RI) of GluN1/GluN2B NMDAR. On the procedure:
We tested the derivatives by the whole-cell patch-clamp method at a concentration of 10 μM under steady-state conditions in the presence of the saturating concentrations of NMDAR (co-)agonists (L-glutamate and glycine). […] Whole-cell patch-clamp recordings were performed using an Axopatch 200B amplifier (Molecular Devices, LLC., San Jose, CA, USA) at a holding membrane potential of −60 mV. HEK293 cells were co-transfected with DNA vectors encoding human versions of the GluN1-4a (GluN1) and GluN2B subunits and green fluorescent protein (GFP) in a 1:1:1 ratio using 0.9 μL PolyMag reagent (OZ Biosciences SAS, Marseille, France) in 50 μL Opti-MEM I [56, 57]. After 15 min on a magnetic plate, HEK293 cells were trypsinized and resuspended in Opti-MEM I medium containing 1% FBS, 2 mM MgCl2 and 3 mM kynurenic acid (to reduce cell death caused by activation of NMDARs). Electrophysiological measurements were performed 24–48 h after completion of transfection at room temperature. The extracellular recording solution (ECS) contained (in mM): 160 NaCl, 2.5 KCl, 10 HEPES, 10 D-glucose, 0.2 EDTA, and 0.7 CaCl2 (pH 7.3 with NaOH). […] A microprocessor-controlled rapid perfusion system with a time constant for solution exchange around the recorded cell of ~20 ms was used. Currents were low-pass filtered at 2 kHz using an eight-pole Bessel filter, digitized at 5 kHz, and recorded using the pCLAMP 10 program (Molecular Devices, LLC., San Jose, CA, USA). The co-agonist glycine (100 µM) was applied throughout the recording, and the agonist L-glutamate (1 mM) was used to elicit responses of GluN1/GluN2B receptors.

For a further data set, the target named is T2, human AChE (hAChE) (Homo sapiens, UniProt P22303).
T2 construct: made in house
T2 sequence (P22303 32-614): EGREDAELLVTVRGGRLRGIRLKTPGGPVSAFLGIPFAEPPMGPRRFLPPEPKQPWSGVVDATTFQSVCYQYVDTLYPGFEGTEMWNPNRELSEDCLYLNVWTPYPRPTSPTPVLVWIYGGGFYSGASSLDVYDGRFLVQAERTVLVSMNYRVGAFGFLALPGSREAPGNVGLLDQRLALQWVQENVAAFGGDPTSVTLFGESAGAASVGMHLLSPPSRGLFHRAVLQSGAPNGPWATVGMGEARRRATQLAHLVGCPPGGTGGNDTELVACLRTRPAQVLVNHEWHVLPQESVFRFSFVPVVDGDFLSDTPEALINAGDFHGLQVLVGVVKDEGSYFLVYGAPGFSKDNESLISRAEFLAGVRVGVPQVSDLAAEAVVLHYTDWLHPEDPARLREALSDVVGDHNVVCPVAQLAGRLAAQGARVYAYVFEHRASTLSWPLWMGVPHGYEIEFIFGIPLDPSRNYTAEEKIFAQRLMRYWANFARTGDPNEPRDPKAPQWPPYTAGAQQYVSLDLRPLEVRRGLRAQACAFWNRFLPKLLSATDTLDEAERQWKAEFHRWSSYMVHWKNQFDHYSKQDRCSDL
Nature of the data set: hAChE inhibition, modified Ellman's method. The conditions noted are these: read-out: % of AChE inhibition. The class given is biochemical. As for the experimental part:
(§1) N-Methylpropargylamine-quinazolines were tested for their inhibitory potency against human AChE (hAChE) and human BChE (hBChE) enzymes using the modified spectrophotometric method of Ellman et al..
(§2) The human recombinant BChE and AChE were prepared at the Department of Toxicology and Military Pharmacy (Faculty of Military Health Sciences, Hradec Kralove, Czech Republic). 5,5′-dithiobis(2-nitrobenzoic acid) (Ellman’s reagent, DTNB), phosphate buffer (PB, pH 7.4), acetylthiocholine (ATC) and butyrylthiocholine (BTC), were purchased from Sigma-Aldrich, Prague, Czech Republic. For measuring purposes, polystyrene Nunc 96-well microplates with a flat-bottom shape (ThermoFisher Scientific, Waltham, MA, USA) were utilized. All the assays were carried out in 0.1 M KH2PO4/K2HPO4 buffer, pH 7.4. Enzyme solutions were prepared at 2.0 units/mL in 2 mL aliquots. The assay medium consisted of a 0.1 M phosphate buffer (pH 7.4), 0.01 M DTNB, the enzyme, and 0.01 M substrate (ATC/BTC iodide solution). Concentration 1 µM was tested and the % of inhibition was calculated. Tested compounds were pre-incubated for 5 min. The reaction was started by immediate addition of 20 μL of the substrate. […] Each concentration was assayed in triplicate. Software GraphPad Prism 5 (San Diego, CA, USA) was used for the statistical data evaluation.
(In general: Ellman's reagent forms a yellow product with free thiols.)

The next data set in a line: in vitro. Conditions: human, undifferentiated SH-SY5Y cells.
The test system of data set [1] is differentiated SH-SY5Y cells. Description: MTT viability of differentiated SH-SY5Y. It is filed as cell-based, human. Conditions: concentration equal to IC50 from undifferentiated model, 24 h.
Description: Then, the differentiated SH-SY5Y cells were treated with concentrations corresponding to the IC50 values obtained from the cytotoxicity measurement using undifferentiated SH-SY5Y cells. Cells were exposed to a tested compound for 24 h. Then, the medium was replaced by a medium containing 10 μM of MTT and cells were allowed to produce formazan for another, approximately 3 h under surveillance. Thereafter, the medium was aspirated and purple crystals of MTT formazan were dissolved in 100 μL DMSO under shaking. Cell viability was assessed spectrophotometrically by the amount of formazan produced. Absorbance was measured at 570 nm with 650 nm reference wavelength on Spark (Tecan Group Ltd., Männedorf, Switzerland). The IC50 value was then calculated from the control-subtracted triplicates using non-linear regression (four parameters) of GraphPad Prism 9 software. Final IC50 and SEM values were obtained as a mean of three.
Another data set addresses T3, hMAO-B (Homo sapiens, UniProt P27338).
T3 construct: purchased Merck (Prague, Czech Republic)
T3 sequence (P27338 1-520): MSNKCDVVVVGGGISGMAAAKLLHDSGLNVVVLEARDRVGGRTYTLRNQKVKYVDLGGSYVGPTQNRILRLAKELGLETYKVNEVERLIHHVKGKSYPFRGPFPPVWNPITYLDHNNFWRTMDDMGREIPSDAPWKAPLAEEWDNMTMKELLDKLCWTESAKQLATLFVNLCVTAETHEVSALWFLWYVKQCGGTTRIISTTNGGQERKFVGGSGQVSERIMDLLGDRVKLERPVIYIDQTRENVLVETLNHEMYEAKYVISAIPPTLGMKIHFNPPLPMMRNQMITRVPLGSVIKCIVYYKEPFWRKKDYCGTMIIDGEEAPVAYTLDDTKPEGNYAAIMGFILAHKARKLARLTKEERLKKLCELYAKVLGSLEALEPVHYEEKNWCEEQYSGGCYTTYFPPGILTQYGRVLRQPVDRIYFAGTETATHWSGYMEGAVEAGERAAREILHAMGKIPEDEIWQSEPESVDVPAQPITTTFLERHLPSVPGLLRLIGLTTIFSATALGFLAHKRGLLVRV
Description: in vitro inhibition of hMAO-B, kynuramine fluorescence assay. It is filed as biochemical. As for the experimental part:
The hMAO-A and hMAO-B enzymes were purchased from Merck (Prague, Czech Republic). […] The mixture was pre-incubated at 37 °C for 15 min and subsequently substrate kynuramine was added to the final concentration of 100 µM. The final volume of reaction mixture was 0.1 mL. The whole reaction mixture was incubated at 37 °C for 30 min. The reaction was stopped by the addition of 20 µL 4M NaOH.

The target of another data set is T4, human BChE (hBChE) (Homo sapiens, UniProt P06276).
T4 construct: made in house
T4 sequence (P06276 29-602): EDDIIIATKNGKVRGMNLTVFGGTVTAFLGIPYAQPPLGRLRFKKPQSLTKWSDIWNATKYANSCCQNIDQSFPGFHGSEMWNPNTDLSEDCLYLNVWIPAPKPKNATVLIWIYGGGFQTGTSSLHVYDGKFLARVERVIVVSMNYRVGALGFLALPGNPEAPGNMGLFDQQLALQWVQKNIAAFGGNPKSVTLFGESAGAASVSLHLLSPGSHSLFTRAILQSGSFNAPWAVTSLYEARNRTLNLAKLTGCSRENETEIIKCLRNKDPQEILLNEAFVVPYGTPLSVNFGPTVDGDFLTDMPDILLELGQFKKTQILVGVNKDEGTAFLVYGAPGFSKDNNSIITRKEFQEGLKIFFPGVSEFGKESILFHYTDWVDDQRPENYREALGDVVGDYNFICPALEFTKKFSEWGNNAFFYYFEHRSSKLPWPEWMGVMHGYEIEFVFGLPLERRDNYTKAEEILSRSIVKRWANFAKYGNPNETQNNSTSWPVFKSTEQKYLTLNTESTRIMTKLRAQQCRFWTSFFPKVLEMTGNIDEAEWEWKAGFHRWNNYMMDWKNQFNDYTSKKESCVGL
Description: hBChE inhibition, modified Ellman's method. It is filed as biochemical. The conditions noted are these: 10^-6 M. On the procedure: as §1, §2

Data set [2] can be described thus: PAMPA prediction of BBB permeability. It is filed as in vitro ADME. As for the experimental part: The assay validation was performed using standard compounds whose CNS status is experimentally known from in vivo conditions.
PAMPA (the parallel artificial membrane-permeability assay) is a high-throughput screening tool applicable for prediction of the passive transport of potential drugs across the blood–brain barrier (BBB). In this study, it was used as a non-cell-based in vitro assay carried out in a coated 96-well membrane filter. The filter membrane of the donor plate was coated with PBL (Polar Brain Lipid, Avanti, USA) in dodecane (4 µL of 20 mg/mL PBL in dodecane) and the acceptor well was filled with 300 µL of PBS (pH 7.4; VA). The tested compounds were dissolved first in DMSO and subsequently diluted with PBS (pH 7.4) to final concentrations of 50–100 μM in the donor wells. […] About 300 µL of the donor solution was added to the donor wells (VD) and the donor filter plate was carefully put on the acceptor plate so that the coated membrane was “in touch” with both the donor solution and acceptor buffer. In principle, the test compound diffused from the donor well through the lipid membrane (Area = 0.28 cm^2) to the acceptor well. The concentration of the drug in both the donor and acceptor wells were assessed after 3, 4, 5, and 6 h of incubation in quadruplicate using the UV plate reader Spark (Tecan Group Ltd., Männedorf, Switzerland) at the maximum absorption wavelength of each compound. In addition, the solution of the theoretical compound concentration, simulating the equilibrium state established if the membrane were ideally permeable, was prepared and assessed as well.

The next data set concerns SH-SY5Y cells. Description: dehydrogenase activity, WST-1 test. It is filed as cell-based, human. Conditions: 100 µM, mean ± SD. On the procedure:
Next, we tested the effects of the compounds on intracellular dehydrogenase activity and glutathione levels. […] To evaluate the effects of the compounds on cells, we measured total intracellular dehydrogenase activity as a marker of cellular viability and glutathione levels for evaluation of oxidative stress (Table 6).
Dehydrogenase activity was evaluated by WST-1 test (Roche, Munich, Germany). The WST-1 test measures the activity of intra- and extra-mitochondrial dehydrogenases. […] The change of absorbance was measured by spectrophotometer at the wavelength of 440 nm using SPARK microplate reader (Tecan, Austria) while incubated at 37 °C. The dehydrogenase activity was expressed as the percentage of total cellular dehydrogenase activity relative to that in the control cells (control = 100%).

The structures appear in SMILES notation.

T1 sequence (Q13224 27-1484, other chains not shown): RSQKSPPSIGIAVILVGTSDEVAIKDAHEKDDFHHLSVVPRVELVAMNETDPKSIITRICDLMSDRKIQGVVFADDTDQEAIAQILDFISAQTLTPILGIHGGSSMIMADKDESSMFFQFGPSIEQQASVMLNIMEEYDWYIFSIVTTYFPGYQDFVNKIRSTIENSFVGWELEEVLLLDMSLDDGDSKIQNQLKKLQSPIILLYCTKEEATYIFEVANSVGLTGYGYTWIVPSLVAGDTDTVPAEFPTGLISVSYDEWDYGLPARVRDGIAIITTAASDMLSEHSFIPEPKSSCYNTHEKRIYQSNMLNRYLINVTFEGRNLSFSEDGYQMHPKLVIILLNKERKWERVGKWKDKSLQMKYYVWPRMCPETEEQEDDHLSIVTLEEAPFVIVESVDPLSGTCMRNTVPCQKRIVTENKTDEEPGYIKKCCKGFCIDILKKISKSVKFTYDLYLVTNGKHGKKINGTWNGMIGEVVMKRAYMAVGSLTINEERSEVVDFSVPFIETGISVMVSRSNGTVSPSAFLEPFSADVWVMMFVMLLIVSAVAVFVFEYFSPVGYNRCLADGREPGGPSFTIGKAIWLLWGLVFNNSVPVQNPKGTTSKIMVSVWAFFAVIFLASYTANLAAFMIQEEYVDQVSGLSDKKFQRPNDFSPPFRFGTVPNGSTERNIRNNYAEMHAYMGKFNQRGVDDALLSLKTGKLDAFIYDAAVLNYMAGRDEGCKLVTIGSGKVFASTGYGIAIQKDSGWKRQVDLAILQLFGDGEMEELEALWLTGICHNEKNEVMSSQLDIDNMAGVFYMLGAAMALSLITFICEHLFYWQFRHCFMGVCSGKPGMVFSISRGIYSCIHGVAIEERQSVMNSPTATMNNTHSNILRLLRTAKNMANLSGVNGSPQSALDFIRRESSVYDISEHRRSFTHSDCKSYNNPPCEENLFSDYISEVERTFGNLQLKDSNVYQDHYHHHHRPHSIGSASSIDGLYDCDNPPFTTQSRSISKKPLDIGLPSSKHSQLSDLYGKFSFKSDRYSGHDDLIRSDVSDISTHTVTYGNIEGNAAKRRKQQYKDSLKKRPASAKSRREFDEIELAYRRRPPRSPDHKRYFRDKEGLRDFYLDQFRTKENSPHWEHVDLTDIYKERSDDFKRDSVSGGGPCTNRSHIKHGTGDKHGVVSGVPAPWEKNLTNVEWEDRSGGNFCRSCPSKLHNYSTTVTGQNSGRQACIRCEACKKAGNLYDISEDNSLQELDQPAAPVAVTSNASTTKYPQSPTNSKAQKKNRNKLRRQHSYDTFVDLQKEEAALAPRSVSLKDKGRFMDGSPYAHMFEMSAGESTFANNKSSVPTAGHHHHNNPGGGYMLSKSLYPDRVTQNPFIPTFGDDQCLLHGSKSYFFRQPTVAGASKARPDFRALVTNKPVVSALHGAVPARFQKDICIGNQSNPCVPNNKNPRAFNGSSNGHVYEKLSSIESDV

For orientation: IC50 means the midpoint of a concentration-inhibition curve. Turning to `C#CCN(C)c1nc(NCCCC)c2ccc(Cl)cc2n1` [II-6e, N4-butyl-7-chloro-N2-methyl-N2-(prop-2-yn-1-yl)quinazoline-2,4-diamine], the inhibition at 10 µM on GluN1/GluN2B receptor amounted to 33.8 ± 2.56%. Also, the inhibition at 1 µM was 9% on human AChE (hAChE) and 0% against human BChE (hBChE). Inhibition in “in vitro” was half-maximal at 67.1 ± 3.81 µM (IC50 at 24 h). Also, the “effect on viability of differentiated SH-SY5Y (in words)” value in data set [1] was “increased toxicity”. Besides, the IC50 at hMAO-B was 3.65 ± 0.14 µM. The “selectivity profile hMAO-A vs hMAO-B (in words)” value at hMAO-B is on record as “hMAO-B selective inhibitors”. Also, the “BBB penetration by PAMPA (in words)” value in data set [2] is reported as “did not penetrate the artificial barrier”. Also, in data set [2] (PAMPA class), the “CNS (+/−)” value is listed as “CNS (−) (CNS (−) (low BBB permeation predicted): Pe (×10^−6 cm s^−1) < 2.0)”. Further, the Papp in data set [2] (PAMPA, PBS pH 7.4, read-out: Pe ± SEM) was 0.9 ± 0.43 ×10⁻⁶ cm/s. For the same compound, the entries for the “Dehydrogenase Activity (% of Control)” value with SH-SY5Y cells (6 h) and in the data set on SH-SY5Y cells (24 h) were 63 ± 9 % of Control and 48 ± 9 % of Control, respectively.
